The source of these data is patent publication US20240158370A1, “CK1 alpha AND DUAL CK1 alpha / GSPT1 DEGRADING COMPOUNDS” (Innovo Therapeutics, Inc., priority 2022, published 2024).

SMILES strings stand for the structures.

The target of one test is GSPT1 (Homo sapiens, UniProt P15170+Q96SW2). The test is described as follows: HiBiT degradation assay, GSPT1, Procedure A. It is filed as cell-based. Also noted: HiBit-GSPT1 KI HEK293(LgBit) Cells; host or cells: HEK293(LgBit) knock-in cells. As to conditions: six hours incubation. As for the experimental part:
(§1) Compounds were spotted onto Cornin 384-Well, Cell Culture-Treated, Flat-Bottom, Low Flange Microplate (Fisher Scientific, Catalog #07-201-013) using a Tecan D300e digital dispenser. Ten-point dose response curves spanning from 10 μM to 0.005 μM with a 0.1% DMSO tolerance were used.
(§2) Cells were dissociated from tissue 182 cm^2 Tissue Culture Flask (CellTreat Catalog #229351) by washing the cells with PBS (Fisher Scientific Catalog #BP3994) followed by dissociation with Trypsin-EDTA (0.25%) (Thermo Scientific Catalog #25200056). Trysin was neutralized and cells were resuspended with DMEM+10% FBS. Cells were centrifuged for 5 minutes at 1200 RPMs. Cell culture media was aspirated off and cells were resuspended with DMEM+10% FBS. Cell density was determined using a Denovix CellDrop BF cell counter. Cell density was adjusted to 1×10^6 cells/ml. 40 μl of cells was added to compound treated tissue culture plates and incubated for six hours at 37° C. After six hours, cell culture plates were removed from tissue culture incubator and cooled to room temperature. 40 μl of Nano-GloHiBiT Lytic Detection Reagent (Promega, Catalog #N3040) was added to each well. Plates were placed on an orbital shaker (600 rpm) for 20 minutes. Luminescence was measured using an Envsion plate reader (Perkin Elmer). DC50 curves and Ymin were generated using a 4-parameter curve fit with GraphPad Prism software (Prism Corporation).
(§3) Results from the HiBiT assay (DC50 (nM) and Ymin (% remaining)) are shown below. All CK1α data was generated according to Procedure A. GSPT1 data for Examples 1-600, 603-620 and 703-705 was generated according to Procedure A. GSPT1 data for Examples 601, 621-702 and 706-735 was generated according to Procedure B.

The target in another test is T1, CK1α (Homo sapiens, UniProt P48729+Q96SW2).
T1 construct: CSNK1A1-HiBit KI HEK293(LgBit) Cells; host or cells: HEK293(LgBit) knock-in cells
The test is described as follows: HiBiT degradation assay, CK1α, Procedure A. It counts as cell-based. As to conditions: six hours incubation. As for the experimental part:
as §1, §2, §3

T1 sequence (P48729 whole entry): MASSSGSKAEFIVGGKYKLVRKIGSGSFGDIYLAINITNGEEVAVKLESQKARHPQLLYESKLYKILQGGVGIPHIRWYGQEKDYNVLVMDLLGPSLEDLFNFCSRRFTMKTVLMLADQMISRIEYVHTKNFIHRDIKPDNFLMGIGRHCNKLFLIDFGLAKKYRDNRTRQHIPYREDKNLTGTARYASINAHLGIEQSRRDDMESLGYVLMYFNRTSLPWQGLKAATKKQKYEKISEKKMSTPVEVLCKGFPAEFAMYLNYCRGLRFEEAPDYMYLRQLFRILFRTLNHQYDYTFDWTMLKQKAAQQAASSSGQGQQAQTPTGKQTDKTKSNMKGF
T1 sequence (Q96SW2 whole entry): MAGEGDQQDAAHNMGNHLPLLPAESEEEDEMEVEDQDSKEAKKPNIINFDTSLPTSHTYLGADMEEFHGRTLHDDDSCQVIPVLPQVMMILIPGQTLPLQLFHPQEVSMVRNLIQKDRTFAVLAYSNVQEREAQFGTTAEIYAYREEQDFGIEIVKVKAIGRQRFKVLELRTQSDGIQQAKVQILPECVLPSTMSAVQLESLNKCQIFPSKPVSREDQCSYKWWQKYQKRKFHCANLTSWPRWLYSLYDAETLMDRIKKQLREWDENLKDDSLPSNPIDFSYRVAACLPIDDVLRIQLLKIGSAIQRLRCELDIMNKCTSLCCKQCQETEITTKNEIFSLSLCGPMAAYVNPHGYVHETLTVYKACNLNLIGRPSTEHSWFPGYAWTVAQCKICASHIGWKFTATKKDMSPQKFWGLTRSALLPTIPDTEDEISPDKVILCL
T1 sequence (Q16531 whole entry partner): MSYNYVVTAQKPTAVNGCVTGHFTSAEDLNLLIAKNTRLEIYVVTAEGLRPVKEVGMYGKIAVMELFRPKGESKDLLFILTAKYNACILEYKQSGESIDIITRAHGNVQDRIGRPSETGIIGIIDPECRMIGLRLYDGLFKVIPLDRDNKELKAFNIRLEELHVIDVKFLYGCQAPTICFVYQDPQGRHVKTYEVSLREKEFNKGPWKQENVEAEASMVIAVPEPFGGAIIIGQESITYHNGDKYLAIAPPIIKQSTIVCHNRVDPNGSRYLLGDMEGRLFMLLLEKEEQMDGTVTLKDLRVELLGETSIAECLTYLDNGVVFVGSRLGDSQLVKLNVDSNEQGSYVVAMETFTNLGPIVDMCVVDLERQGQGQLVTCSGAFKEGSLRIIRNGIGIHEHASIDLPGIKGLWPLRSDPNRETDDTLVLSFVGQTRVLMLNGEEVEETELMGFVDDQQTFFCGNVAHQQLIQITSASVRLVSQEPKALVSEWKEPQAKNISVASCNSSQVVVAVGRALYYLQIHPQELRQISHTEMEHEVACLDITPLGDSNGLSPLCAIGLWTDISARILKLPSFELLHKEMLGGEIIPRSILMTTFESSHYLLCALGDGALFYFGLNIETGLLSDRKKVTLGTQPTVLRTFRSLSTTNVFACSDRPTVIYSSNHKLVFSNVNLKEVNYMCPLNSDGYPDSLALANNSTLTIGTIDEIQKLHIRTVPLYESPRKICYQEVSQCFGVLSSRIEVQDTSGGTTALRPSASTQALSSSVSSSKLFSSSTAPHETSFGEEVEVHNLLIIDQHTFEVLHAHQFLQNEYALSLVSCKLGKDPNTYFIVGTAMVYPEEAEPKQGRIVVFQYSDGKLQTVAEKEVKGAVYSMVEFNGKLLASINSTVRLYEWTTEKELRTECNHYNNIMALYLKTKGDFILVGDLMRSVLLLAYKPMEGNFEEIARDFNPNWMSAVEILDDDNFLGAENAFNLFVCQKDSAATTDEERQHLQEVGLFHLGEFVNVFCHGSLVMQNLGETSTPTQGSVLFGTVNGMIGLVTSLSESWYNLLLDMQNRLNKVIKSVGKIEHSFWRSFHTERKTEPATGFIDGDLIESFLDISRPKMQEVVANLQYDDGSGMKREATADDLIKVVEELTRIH
GSPT1, sequence (P15170 whole entry): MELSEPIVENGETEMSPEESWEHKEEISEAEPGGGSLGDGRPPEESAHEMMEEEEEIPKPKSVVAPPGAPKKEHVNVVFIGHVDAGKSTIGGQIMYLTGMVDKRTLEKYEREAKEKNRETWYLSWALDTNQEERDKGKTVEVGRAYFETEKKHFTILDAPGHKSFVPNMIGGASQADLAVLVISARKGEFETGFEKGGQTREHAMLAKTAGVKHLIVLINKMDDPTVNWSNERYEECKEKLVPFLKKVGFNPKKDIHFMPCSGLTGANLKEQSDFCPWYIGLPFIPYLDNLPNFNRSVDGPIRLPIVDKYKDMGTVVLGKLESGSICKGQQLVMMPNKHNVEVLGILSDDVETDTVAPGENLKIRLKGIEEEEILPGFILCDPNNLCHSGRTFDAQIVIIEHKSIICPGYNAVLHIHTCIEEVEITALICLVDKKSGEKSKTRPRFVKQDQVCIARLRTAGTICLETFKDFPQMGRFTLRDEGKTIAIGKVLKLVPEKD
GSPT1, sequence (Q96SW2 whole entry): as the sequence (Q96SW2 whole entry) above
GSPT1, sequence (Q16531 whole entry partner): as the sequence (Q16531 whole entry partner) above

On to `O=C1CCC(N2Cc3cc(-n4nccc4-c4ccccc4)ccc3C2=O)C(=O)N1` (centres unmarked) [Example 33, 3-(1-Oxo-5-(5-phenyl-1H-pyrazol-1-yl)isoindolin-2-yl)piperidine-2,6-dione], for which, on GSPT1, the half-maximal degradation concentration (DC50) is not below 25 nM and the “GSPT1 Ymin” value is recorded as “E (E = >25-75% remaining)”. Further, on CK1α, the “CK1α Ymin” value is “E (E = >25-75% remaining)” and the half-maximal degradation concentration (DC50) was less than 25 nM.

Take `Cn1nc(-c2ccccc2)cc1-c1ccc2c(c1)CN(C1CCC(=O)NC1=O)C2=O` (centres unmarked) [Example 35, 3-(5-(1-Methyl-3-phenyl-1H-pyrazol-5-yl)-1-oxoisoindolin-2-yl)piperidine-2,6-dione]: at GSPT1, the DC50 was not below 25 nM and the “GSPT1 Ymin” value is “F (F = >75-100% remaining)”. For the same compound, on CK1α, the “CK1α Ymin” value is reported as “F (F = >75-100% remaining)” and the half-maximal degradation concentration (DC50) was not below 25 nM.

Regarding `O=C1CCC(N2Cc3cc(-c4c[nH]nc4-c4ccncc4)ccc3C2=O)C(=O)N1` (centres unmarked) [Example 38, 3-(1-Oxo-5-(3-(pyridin-4-yl)-1H-pyrazol-4-yl)isoindolin-2-yl)piperidine-2,6-dione], on GSPT1, the half-maximal degradation concentration (DC50) was not below 25 nM and the “GSPT1 Ymin” value is reported as “F (F = >75-100% remaining)”. For the same compound, on CK1α, the “CK1α Ymin” value is on record as “E (E = >25-75% remaining)” and the 50% degradation concentration (DC50) was not below 25 nM.

For the compound `O=C1CCC(N2Cc3cc(-c4nc(-c5ccccc5)co4)ccc3C2=O)C(=O)N1` (centres unmarked) [Example 42, 3-(1-Oxo-5-(4-phenyloxazol-2-yl)isoindolin-2-yl)piperidine-2,6-dione], on GSPT1, the DC50 is not below 25 nM and the “GSPT1 Ymin” value is recorded as “F (F = >75-100% remaining)”. On CK1α, the “CK1α Ymin” value is “E (E = >25-75% remaining)” and the half-maximal degradation concentration (DC50) is less than 25 nM.

For the compound `Cn1c(C2CC2)nc(-c2ccc3c(c2)CN(C2CCC(=O)NC2=O)C3=O)c1-c1cccnc1` (centres unmarked) [Example 44, 3-(5-(2-Cyclopropyl-1-methyl-5-(pyridin-3-yl)-1H-imidazol-4-yl)-1-oxoisoindolin-2-yl)piperidine-2,6-dione], at GSPT1, the 50% degradation concentration (DC50) was not below 25 nM and the “GSPT1 Ymin” value is “F (F = >75-100% remaining)”. In addition, on CK1α, the “CK1α Ymin” value was “C (C = 0-10% remaining)” and the DC50 was less than 25 nM.

For the compound `Cn1c(C2CC2)nc(-c2ccc3c(c2)CN(C2CCC(=O)NC2=O)C3=O)c1-c1ccncc1` (centres unmarked) [Example 45, 3-(5-(2-Cyclopropyl-1-methyl-5-(pyridin-4-yl)-1H-imidazol-4-yl)-1-oxoisoindolin-2-yl)piperidine-2,6-dione], on GSPT1, the DC50 is not below 25 nM and the “GSPT1 Ymin” value is given as “F (F = >75-100% remaining)”. On CK1α, the “CK1α Ymin” value is on record as “C (C = 0-10% remaining)” and the DC50 was less than 25 nM.

On to `O=C1CCC(N2Cc3cc(-c4c[nH]nc4C4CC4)ccc3C2=O)C(=O)N1` (centres unmarked) [Example 47, 3-(5-(3-Cyclopropyl-1H-pyrazol-4-yl)-1-oxoisoindolin-2-yl)piperidine-2,6-dione], for which, at GSPT1, the 50% degradation concentration (DC50) is not below 25 nM and the “GSPT1 Ymin” value is recorded as “F (F = >75-100% remaining)”. In addition, on CK1α, the “CK1α Ymin” value is listed as “E (E = >25-75% remaining)” and the DC50 is not below 25 nM.

Regarding `Cn1c(C2CCCCC2)nc(-c2ccc3c(c2)CN(C2CCC(=O)NC2=O)C3=O)c1-c1ccccc1` (centres unmarked) [Example 49, 3-(5-(2-Cyclohexyl-1-methyl-5-phenyl-1H-imidazol-4-yl)-1-oxoisoindolin-2-yl)piperidine-2,6-dione], at GSPT1, the DC50 is less than 25 nM and the “GSPT1 Ymin” value is recorded as “F (F = >75-100% remaining)”. Moreover, on CK1α, the “CK1α Ymin” value is reported as “C (C = 0-10% remaining)” and the DC50 was less than 25 nM.

In the case of `Cn1c(C2CCOCC2)nc(-c2ccc3c(c2)CN(C2CCC(=O)NC2=O)C3=O)c1-c1ccccc1` (centres unmarked) [Example 50, 3-(5-(1-methyl-5-phenyl-2-(tetrahydro-2H-pyran-4-yl)-1H-imidazol-4-yl)-1-oxoisoindolin-2-yl)piperidine-2,6-dione], at GSPT1, the DC50 is not below 25 nM and the “GSPT1 Ymin” value is “F (F = >75-100% remaining)”. Also, on CK1α, the “CK1α Ymin” value is “C (C = 0-10% remaining)” and the 50% degradation concentration (DC50) was less than 25 nM.

`O=C1CCC(N2Cc3cc(-c4nc(C(F)(F)F)[nH]c4-c4ccccc4)ccc3C2=O)C(=O)N1` (centres unmarked) [Example 53, 3-(1-Oxo-5-(5-phenyl-2-(trifluoromethyl)-1H-imidazol-4-yl)isoindolin-2-yl)piperidine-2,6-dione]: at GSPT1, the half-maximal degradation concentration (DC50) is not below 25 nM and the “GSPT1 Ymin” value is given as “E (E = >25-75% remaining)”. In addition, on CK1α, the “CK1α Ymin” value is listed as “C (C = 0-10% remaining)” and the half-maximal degradation concentration (DC50) was less than 25 nM.

As for `O=C1CCC(N2Cc3cc(-c4c[nH]c(-c5ccccc5)n4)ccc3C2=O)C(=O)N1` (centres unmarked) [Example 54, 3-(1-Oxo-5-(2-phenyl-1H-imidazol-4-yl)isoindolin-2-yl)piperidine-2,6-dione], at GSPT1, the half-maximal degradation concentration (DC50) is not below 25 nM and the “GSPT1 Ymin” value is recorded as “F (F = >75-100% remaining)”. Also, on CK1α, the “CK1α Ymin” value is listed as “C (C = 0-10% remaining)” and the DC50 is less than 25 nM.

With `Cn1ncc(-c2ccc3c(c2)CN(C2CCC(=O)NC2=O)C3=O)c1-c1cccc(N2CCCC2)c1` (centres unmarked) [Example 55], at GSPT1, the half-maximal degradation concentration (DC50) was not below 25 nM and the “GSPT1 Ymin” value is “F (F = >75-100% remaining)”. Besides, at CK1α, the “CK1α Ymin” value is “E (E = >25-75% remaining)” and the 50% degradation concentration (DC50) is less than 25 nM.

Turning to `CNC(=O)c1ccc(-c2c(-c3ccc4c(c3)CN(C3CCC(=O)NC3=O)C4=O)cnn2C)cc1` (centres unmarked) [Example 56], on GSPT1, the DC50 is not below 25 nM and the “GSPT1 Ymin” value was “F (F = >75-100% remaining)”. Further, at CK1α, the “CK1α Ymin” value is “D (D = >10- 25% remaining)” and the DC50 was not below 25 nM.

Take `Cn1ncc(-c2ccc3c(c2)CN(C2CCC(=O)NC2=O)C3=O)c1-c1ccc(C#N)cc1` (centres unmarked) [Example 57]: at GSPT1, the DC50 was not below 25 nM and the “GSPT1 Ymin” value is “F (F = >75-100% remaining)”. At CK1α, the “CK1α Ymin” value is recorded as “E (E = >25-75% remaining)” and the half-maximal degradation concentration (DC50) was not below 25 nM.

As for `Cn1ncc(-c2ccc3c(c2)CN(C2CCC(=O)NC2=O)C3=O)c1-c1ccc(F)c(C#N)c1` (centres unmarked) [Example 58], at GSPT1, the DC50 is not below 25 nM and the “GSPT1 Ymin” value is recorded as “F (F = >75-100% remaining)”. At CK1α, the “CK1α Ymin” value was “E (E = >25-75% remaining)” and the half-maximal degradation concentration (DC50) is not below 25 nM.

With `Cn1ncc(-c2ccc3c(c2)CN(C2CCC(=O)NC2=O)C3=O)c1-c1cccc(C(F)F)c1` (centres unmarked) [Example 59], on GSPT1, the DC50 is not below 25 nM and the “GSPT1 Ymin” value is reported as “F (F = >75-100% remaining)”. Moreover, at CK1α, the “CK1α Ymin” value is “E (E = >25-75% remaining)” and the DC50 was less than 25 nM.

As for `CC(C)c1ccccc1-c1c(-c2ccc3c(c2)CN(C2CCC(=O)NC2=O)C3=O)cnn1C` (centres unmarked) [Example 60], on GSPT1, the DC50 is not below 25 nM and the “GSPT1 Ymin” value is “F (F = >75-100% remaining)”. At CK1α, the “CK1α Ymin” value is “E (E = >25-75% remaining)” and the 50% degradation concentration (DC50) was less than 25 nM.

As for `Cn1ncc(-c2ccc3c(c2)CN(C2CCC(=O)NC2=O)C3=O)c1-c1ccc(OCc2ccccc2)cc1` (centres unmarked) [Example 61], on GSPT1, the 50% degradation concentration (DC50) was not below 25 nM and the “GSPT1 Ymin” value was “F (F = >75-100% remaining)”. For the same compound, at CK1α, the “CK1α Ymin” value was “E (E = >25-75% remaining)” and the DC50 was less than 25 nM.

On to `Cn1ncc(-c2ccc3c(c2)CN(C2CCC(=O)NC2=O)C3=O)c1-c1ccc(N2CCOCC2)cc1` (centres unmarked) [Example 62], for which, on GSPT1, the DC50 is not below 25 nM and the “GSPT1 Ymin” value is given as “F (F = >75-100% remaining)”. On CK1α, the “CK1α Ymin” value is given as “D (D = >10- 25% remaining)” and the half-maximal degradation concentration (DC50) was less than 25 nM.

Consider `Cn1ncc(-c2ccc3c(c2)CN(C2CCC(=O)NC2=O)C3=O)c1-c1ccc(C(F)(F)F)cc1` (centres unmarked) [Example 63], for which, on GSPT1, the DC50 was not below 25 nM and the “GSPT1 Ymin” value is reported as “F (F = >75-100% remaining)”. On CK1α, the “CK1α Ymin” value is recorded as “E (E = >25-75% remaining)” and the DC50 is less than 25 nM.

In the case of `COc1ccc(-c2c(-c3ccc4c(c3)CN(C3CCC(=O)NC3=O)C4=O)cnn2C)c(Cl)c1` (centres unmarked) [Example 65], at GSPT1, the DC50 was not below 25 nM and the “GSPT1 Ymin” value is “F (F = >75-100% remaining)”. At CK1α, the “CK1α Ymin” value was “D (D = >10- 25% remaining)” and the DC50 was less than 25 nM.

For `Cc1sccc1-c1c(-c2ccc3c(c2)CN(C2CCC(=O)NC2=O)C3=O)cnn1C` (centres unmarked) [Example 66], on GSPT1, the half-maximal degradation concentration (DC50) is not below 25 nM and the “GSPT1 Ymin” value was “F (F = >75-100% remaining)”. Further, on CK1α, the “CK1α Ymin” value is recorded as “E (E = >25-75% remaining)” and the DC50 was not below 25 nM.

As to `Cn1ncc(-c2ccc3c(c2)CN(C2CCC(=O)NC2=O)C3=O)c1-c1ccccc1F` (centres unmarked) [Example 67], on GSPT1, the DC50 is not below 25 nM and the “GSPT1 Ymin” value was “F (F = >75-100% remaining)”. At CK1α, the “CK1α Ymin” value is “E (E = >25-75% remaining)” and the DC50 is less than 25 nM.
